In ChEMBL document CHEMBL5523719, “Structure-activity relationship study of new carbazole sulfonamide derivatives as anticancer agents with dual-target mechanism” (Eur J Med Chem, 2024):
pIC50: −log10 of the molar value. The source made the active and inactive calls. The rule behind the calls is not given here.

Columns and labels:
[1] = tested on: MCF7; assay: Induction of apoptosis in human MCF7 cells assessed as viable cells at 50 nM measured after 48 hrs by AnnexinV/PI double staining assays (reference value: 91.20%); type: functional; conditions: read-out: Activity
[2] = tested on: MCF7; assay: Induction of apoptosis in human MCF7 cells assessed as karyolysis at 1 nM measured after 24 hrs by fluorescent microscopy; type: functional, cell-based
[3] = tested on: MCF7; assay: Induction of apoptosis in human MCF7 cells assessed as late apoptotic cells at 6.25 nM measured after 48 hrs by AnnexinV/PI double staining assays (reference value: 2.60%); type: functional
[4] = tested on: HMEC-1; assay: Anti-migration activity in human HMEC-1 cells assessed as inhibition of cell migration at 5 nM measured after 48 hrs by Scratching assay; type: functional, cell-based
[5] = tested on: MCF7; assay: Induction of apoptosis in human MCF7 cells assessed as late apoptotic cells at 50 nM measured after 48 hrs by AnnexinV/PI double staining assays (reference value: 2.60%); type: functional
[6] = tested on: NCI-H460; assay: Antiproliferation activity against human NCI-H460 cells measured after 72 hrs incubation by MTT assay; type: functional, cell-based; conditions: NCI-H460, 72 h
[7] = target: T1, Tubulin (Homo sapiens) (UniProt P68371+Q9H4B7+P0DPH7+P68366+Q13509+Q71U36+P04350+Q3ZCM7+P07437+P68363+Q9BQE3+Q6PEY2+Q13885+Q9BVA1+Q9BUF5); assay: Inhibition of microtubule assembly in human MCF7 cells assessed as disrupted microtubule network at 50 uM measured after 24 hrs incubation by anti-alpha-tubulin antibody (green) and Hoechst 33342 (blue) stained nuclei were obtained under microscopy; type: cell-based
[8] = tested on: MCF7; assay: Induction of apoptosis in human MCF7 cells assessed as early apoptotic cells at 25 nM measured after 48 hrs by AnnexinV/PI double staining assays (reference value: 5.32%); type: functional
[9] = tested on: MCF7; assay: Induction of cell cycle arrest in human MCF7 cells assessed as accumulation of cells at G0/G1 phase at 100 nM measured after 24 hrs by flow cytometry (reference value: 61.73%); type: functional
[10] = tested on: MCF7; assay: Induction of apoptosis in human MCF7 cells assessed as late apoptotic cells at 12.5 nM measured after 48 hrs by AnnexinV/PI double staining assays (reference value: 2.60%); type: functional
[11] = tested on: HMEC-1; assay: Anti-proliferative activity against human HMEC-1 cells measured after 48 hrs; type: functional, cell-based; conditions: HMEC-1, 48 h
[12] = tested on: MCF7; assay: Induction of apoptosis in human MCF7 cells assessed as necrotic cells at 50 nM measured after 48 hrs by AnnexinV/PI double staining assays (reference value: 0.89%); type: functional
[13] = tested on: MCF7; assay: Induction of apoptosis in human MCF7 cells assessed as multinuclear cells at 5 nM measured after 24 hrs by fluorescent microscopy; type: functional
[14] = target: T1, Tubulin (Homo sapiens); assay: Inhibition of microtubule assembly in human HepG2 cells assessed as disrupted microtubule network at 50 uM measured after 24 hrs incubation by anti-alpha-tubulin antibody (green) and Hoechst 33342 (blue) stained nuclei were obtained under microscopy; type: cell-based
[15] = tested on: MCF7; assay: Antiproliferation activity against human MCF7 cells measured after 72 hrs incubation by MTT assay; type: functional, cell-based; conditions: MCF7, 72 h
[16] = tested on: MCF7; assay: Induction of apoptosis in human MCF7 cells assessed as early apoptotic cells at 50 nM measured after 48 hrs by AnnexinV/PI double staining assays (reference value: 5.32%); type: functional
[17] = tested on: MCF7; assay: Induction of cell cycle arrest in human MCF7 cells assessed as accumulation of cells at G2/M phase at 25 nM measured after 24 hrs by flow cytometry (reference value: 22.84%); type: functional
[18] = tested on: MCF7; assay: Induction of apoptosis in human MCF7 cells assessed as viable cells at 6.25 nM measured after 48 hrs by AnnexinV/PI double staining assays (reference value: 91.20%); type: functional; conditions: read-out: Activity
[19] = tested on: MCF7; assay: Induction of cell cycle arrest in human MCF7 cells assessed as accumulation of cells at G0/G1 phase at 4 nM measured after 24 hrs by flow cytometry (reference value: 61.73%); type: functional
[20] = tested on: MCF7; assay: Induction of cell cycle arrest in human MCF7 cells assessed as accumulation of cells at G2/M phase at 100 nM measured after 24 hrs by flow cytometry (reference value: 22.84%); type: functional

pIC50 [6]: 7.75
inhibition [7]: Active
inhibition [14]: Active
pIC50 [15]: 7.91
SMILES: COc1cc(NS(=O)(=O)c2ccc3c(c2)c2ccc(N)cc2n3C)c(OC)cc1Cl
viability at 0.05 µM [1]: 34.2%
Activity [2]: Active
Activity [3]: 7.06%
inhibition [4]: Active
Activity [5]: 14.69%
Activity [8]: 46.14%
Activity [9]: 4.32%
Activity [10]: 8.66%
pIC50 [11]: 8.19
Activity [12]: 0.08%
Activity [13]: Active
Activity [16]: 50.98%
Activity [17]: 31.9%
viability at 0.00625 µM [18]: 76.1%
Activity [19]: 47.57%
Activity [20]: 41.21%
